Data as given in patent publication US12077503B2, “Substituted cyclic amides and their use as herbicides” (FMC CORPORATION, priority 2015, dated 2024).

What was measured:
Format in all cases: in vivo
[1] = test system: barnyardgrass (Echinochloa crus-galli); test: Test A preemergence; conditions: Echinochloa crus-galli, pre-emergence, 240 h, 0 to 100 scale where 0 is no effect and 100 is complete control, read-out: Barnyardgrass plant response rating
In short: (§1)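 Greenhouse, ~10 d after spray; visual injury vs untreated controls, 0 = no effect, 100 = complete control. Preemergence: directed soil spray over planted seeds. Postemergence: plants 2–10 cm, 1–2 leaf stage. Loam/sand blend. Compound in non-phytotoxic solvent with surfactant.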

[2] = test system: pigweed (Amaranthus retroflexus); test: Test A preemergence; conditions: Amaranthus retroflexus, pre-emergence, 240 h, 0 to 100 scale where 0 is no effect and 100 is complete control, read-out: Pigweed plant response rating
[3] = test system: ragweed (common ragweed, Ambrosia elatior); test: Test A preemergence; conditions: Ambrosia artemisiifolia, pre-emergence, 240 h, 0 to 100 scale where 0 is no effect and 100 is complete control, read-out: Ragweed plant response rating
In short: as §1

Kochia (Kochia scoparia) [4] = test: Test A preemergence; conditions: Bassia scoparia, pre-emergence, 240 h, 0 to 100 scale where 0 is no effect and 100 is complete control, read-out: Kochia plant response rating
In short: as §1

[5] = test system: giant foxtail (Setaria faberii); test: Test A preemergence; conditions: Setaria faberi, pre-emergence, 240 h, 0 to 100 scale where 0 is no effect and 100 is complete control, read-out: Foxtail, Giant plant response rating
In short: as §1

[6] = test system: ryegrass, Italian (Italian ryegrass, Lolium multiflorum); test: Test A preemergence; conditions: Lolium multiflorum, pre-emergence, 240 h, 0 to 100 scale where 0 is no effect and 100 is complete control, read-out: Ryegrass, Italian plant response rating
In short: as §1

[7] = test system: barnyardgrass (Echinochloa crus-galli); test: Test B flooded paddy test; conditions: Echinochloa crus-galli, 250 g ai/ha, Flood; 0 to 100 scale where 0 is no effect and 100 is complete control; read-out: Barnyardgrass plant response rating
In short: (§2)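 2-leaf plants; pots flooded 3 cm over soil; cpd added to paddy water; depth held; greenhouse 13–15 d; visual rating vs controls, 0 = no effect, 100 = complete control.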

rice (Oryra sativa) = test: Test B flooded paddy test; conditions: Oryza sativa, 250 g ai/ha, Flood; 0 to 100 scale where 0 is no effect and 100 is complete control; read-out: Rice plant response rating
In short: as §2

[8] = test system: ducksalad (Heteranthera limosa); test: Test B flooded paddy test; conditions: Heteranthera limosa, 250 g ai/ha, Flood; 0 to 100 scale where 0 is no effect and 100 is complete control; read-out: Ducksalad plant response rating
In short: as §2

[9] = test system: sedge, umbrella (small-flower umbrella sedge, Cyperus difformis); test: Test B flooded paddy test; conditions: Cyperus difformis, 250 g ai/ha, Flood; 0 to 100 scale where 0 is no effect and 100 is complete control; read-out: Sedge, Umbrella plant response rating
In short: as §2

[10] = test system: wheat (Triticum aestivum); test: Test A postemergence; conditions: Triticum aestivum, post-emergence, 240 h, Postemergence, 31 g ai/ha; 0 is no effect, 100 is complete control; read-out: Wheat plant response rating (0 to 100 scale)
In short: as §1

[11] = test system: barnyardgrass (Echinochloa crus-galli); test: Test A postemergence; conditions: Echinochloa crus-galli, post-emergence, 240 h, read-out: Barnyardgrass plant response rating (0 to 100 scale)
In short: as §1

[12] = test system: pigweed (Amaranthus retroflexus); test: Test A postemergence; conditions: Amaranthus retroflexus, post-emergence, 240 h, read-out: Pigweed plant response rating (0 to 100 scale)
In short: as §1

[13] = test system: ragweed (common ragweed, Ambrosia elatior); test: Test A postemergence; conditions: Ambrosia artemisiifolia, post-emergence, 240 h, read-out: Ragweed plant response rating (0 to 100 scale)
In short: as §1

[14] = test system: blackgrass (Alopecurus myosuroides); test: Test A postemergence; conditions: Alopecurus myosuroides, post-emergence, 240 h, read-out: Blackgrass plant response rating (0 to 100 scale)
In short: as §1

[15] = test system: Galium (catchweed bedstraw, Galium aparine); test: Test A postemergence; conditions: Galium, post-emergence, 240 h, read-out: Galium plant response rating (0 to 100 scale)
In short: as §1

corn (Zea mays) = test: Test A postemergence; conditions: Zea mays, post-emergence, 240 h, read-out: Corn plant response rating (0 to 100 scale)
In short: as §1

Kochia (Kochia scoparia) [16] = test: Test A postemergence; conditions: Bassia scoparia, post-emergence, 240 h, read-out: Kochia plant response rating (0 to 100 scale)
In short: as §1

[17] = test system: giant foxtail (Setaria faberii); test: Test A postemergence; conditions: Setaria faberi, post-emergence, 240 h, read-out: Foxtail, Giant plant response rating (0 to 100 scale)
In short: as §1

[18] = test system: ryegrass, Italian (Italian ryegrass, Lolium multiflorum); test: Test A postemergence; conditions: Lolium multiflorum, post-emergence, 240 h, read-out: Ryegrass, Italian plant response rating (0 to 100 scale)
In short: as §1

[19] = 125 g ai/ha, preemergence, visual injury rating, approximately 10 d
[20] = 125 g ai/ha, postemergence, visual injury vs untreated controls after approx. 10 d, 0 = no effect, 100 = complete control
[21] = Postemergence, 31 g ai/ha, 0 is no effect, 100 is complete control

CN1C[C@H](c2ccc(Cl)c(F)c2)[C@@H](C(=O)Nc2ccc(F)c(F)c2F)C1=O [Compound 1266]
90%: pest or weed control at 125 g/ha [1, 19] | pest or weed control at 31 g/ha ([5]; 31 g ai/ha, Preemergence) | pest or weed control at 125 g/ha [5, 19] | pest or weed control at 125 g/ha [11, 20] | pest or weed control at 31 g/ha [11, 21] | plant injury at 125 g/ha (corn (Zea mays); [20]) | plant injury at 31 g/ha (corn (Zea mays); [21])
40%: pest or weed control at 31 g/ha (Kochia (Kochia scoparia) [4]; 31 g ai/ha, Preemergence) | pest or weed control at 125 g/ha [6, 19]
100%: pest or weed control at 250 g/ha [8]
70%: pest or weed control at 125 g/ha [12, 20] | pest or weed control at 125 g/ha (Kochia (Kochia scoparia) [16]; [20]) | pest or weed control at 125 g/ha [18, 20]
80%: pest or weed control at 31 g/ha ([1]; 31 g ai/ha, Preemergence) | pest or weed control at 125 g/ha [2, 19] | pest or weed control at 125 g/ha (Kochia (Kochia scoparia) [4]; [19]) | pest or weed control at 125 g/ha [17, 20] | pest or weed control at 31 g/ha [17, 21]
0%: pest or weed control at 31 g/ha ([6]; 31 g ai/ha, Preemergence) | pest or weed control at 250 g/ha [9] | plant injury at 31 g/ha [10] | pest or weed control at 31 g/ha [13, 21]
30%: pest or weed control at 31 g/ha (Kochia (Kochia scoparia) [16]; [21])
20%: pest or weed control at 31 g/ha ([2]; 31 g ai/ha, Preemergence) | pest or weed control at 31 g/ha ([3]; 31 g ai/ha, Preemergence) | pest or weed control at 31 g/ha [12, 21] | pest or weed control at 31 g/ha [14, 21] | pest or weed control at 31 g/ha [18, 21]
60%: pest or weed control at 125 g/ha [3, 19] | pest or weed control at 250 g/ha [7] | pest or weed control at 125 g/ha [14, 20] | pest or weed control at 125 g/ha [15, 20]
50%: pest or weed control at 250 g/ha (rice (Oryra sativa)) | pest or weed control at 125 g/ha [13, 20] | pest or weed control at 31 g/ha [15, 21]
